The target in this test is T1, Der p1 (Dermatophagoides pteronyssinus, UniProt P08176).
T1 construct: Allergen stock solutions were derived from the extraction of the rearing medium of dust mites Dermatophagoides pteronyssinus; from tissue; host or cells: rearing medium of dust mites Dermatophagoides pteronyssinus (crude extract)
T1 sequence (P08176 99-320): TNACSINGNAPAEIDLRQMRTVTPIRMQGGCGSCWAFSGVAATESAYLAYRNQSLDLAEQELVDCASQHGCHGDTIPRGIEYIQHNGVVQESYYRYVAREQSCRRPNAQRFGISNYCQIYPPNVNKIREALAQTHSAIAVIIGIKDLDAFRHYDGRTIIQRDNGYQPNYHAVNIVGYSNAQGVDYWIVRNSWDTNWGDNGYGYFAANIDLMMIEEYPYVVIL
The experiment in a line: Allergen denaturing efficacy on Der p1-treated tissue, ELISA. Conditions: for Efficacy (%) on Der p1: tissue treated at 100 ml/m^2. In kind it is biochemical. On the procedure: Allergen stock solutions were derived from the extraction of the rearing medium of dust mites Dermatophagoides pteronyssinus or by the extraction of cat exposed tissues. Allergens were always stored or diluted in Phosphate Buffered Saline (PBS) of pH 7.4 containing NaCl 8 g/L, KH2PO4 0.2 g/L, Na2HPO4 1.15 g/L, KCl 0.2 g/L, Tween 20 0.5 ml/L.
A tissue (Triconet: 40% PP, 60% Viscose, 0.7 mm thickness, 70 g/m^2) was treated with known amount of antigen, allowed to dry overnight and then treated with the allergen denaturing composition at 100 ml/m^2. The next day, the tissue was extracted in 5 ml of PBS and the concentration of allergen was determined by ELISA. ELISA tests were carried out according to the instructions of the commercially available test kits with monoclonal antibodies (www.inbio.com).
Briefly, anti-Der p1 or anti-Fel d1 monoclonal antibodies are diluted 1/1000 in 50 mM carbonate-bicarbonate buffer, pH 9.6. and 100 μl is coated on a polystyrene microtiter well and allowed to incubate overnight at 4° C. Then, wells are washed 3 times with PBS containing 0.05% Tween 20, pH 7.4. (further called: wash step with PBS-T). After incubation with 100 μl 1% BSA in PBS-T for 30 minutes at room temperature, another wash step is executed. Then, 100 μl of diluted allergen standard or test samples is added to each well and incubated for 1 hour at room temperature. After a wash step, 100 μl per well of 1/1000 diluted biotinylated anti-Der p1 or anti-Fel d1 monoclonal antibody is added and incubated for 1 hour at room temperature. Then, another wash step is executed and 100 μl/well of a Streptavidin-Peroxidase (Sigma S5512, reconstituted in 1 ml distilled water) is added as a 1/1000 dilution in PBS-T and incubated for 30 minutes at room temperature. After a final wash step, 100 μl/well of 1 mM ABTS (2,2′-azino-bis(3-ethylbenzthiazoline-6-sulfonic acid)diammonium salt) in 70 mM citrate phosphate buffer, pH 4.2, containing 0.03% H2O2, is added. The assay was allowed to develop after dark green colouring of the highest concentration of the allergen standard. Optical density was read at 405 nm.
Standard allergen dilution curves were taken for calibration. The range in which allergens can be quantified is 0.2-20 ppb for Fel d1 and from 1-100 ppb for Der p1. Dilutions were made until the concentration was in the right order of magnitude to enable quantification and percent reduction by the allergen denaturing composition.
Possible synergy was investigated using Limpet's formula (Richter, D. L., Pestic. Sci. 1987, 19: 309-315): […]
where Ec is the expected additive response, or calculated activity, X is the observed percentage control when component A is applied alone and Y is the observed percentage control when component B is applied alone. Synergy was considered to occur when the observed effect, or measured activity, of a combination of both components was greater than the corresponding Ec value.
(In an ELISA, binding on a coated surface is turned into a signal by an enzyme label.)

Molecules are shown by their SMILES.

On to `[Ca+2]` [Ca^2+], for which the “Efficacy (%) on Der p1” value runs as follows: (Ca^2+ 0.05% alone) 0%; (Ca^2+ 0.125% alone) 0%; (Ca^2+ 0.5% alone) 28%; (Ca^2+ 2.0% alone) 96%. For the same compound, under “Ca^2+ 1%, La^3+ 0%”, the “Efficacy (%) Expected value (Ec)” value worked out at 46%. The “Efficacy (%) Measured value” (Ca^2+ 1%, La^3+ 0%) is 46%. For the same compound, for the setting “Ca^2+ 1%, La^3+ 0%”, the “Efficacy (%) Synergy (measured minus expected)” value was determined as 0%.

As for `[La+3]` [La^3+], the “Efficacy (%) on Der p1” value is recorded as 12% (La^3+ 0.01% alone), 0% (La^3+ 0.05% alone), 0% (La^3+ 0.2% alone) and 100% (La^3+ 1.0% alone).

(Values after US20110135750A1, “ANTI-ALLERGEN COMBINATIONS OF CALCIUM AND LANTHANUM” (priority 2008, published 2011).)
